{"source": "patent US7368414B2", "about": "“Fungicidal mixtures” (BASF Aktiengesellschaft, priority 2000, dated 2008)", "system": "Plasmopara viticola", "experiment": "Activity against downy mildew of grapes caused by Plasmopara viticola (protective, potted vines)", "format": "in vivo", "details": "individual active compound", "experimental": "The active compounds, separately or together, were formulated as 10% emulsion in a mixture of 63% by weight of cyclohexanone and 27% by weight of emulsifier, and diluted with water to the desired concentration.\nEvaluation was carried out by determining the infected leaf areas in percent. These percentages were converted into efficacies. The efficacy (w) was calculated as follows using Abbot's formula: w=(1−α)·100/β • α corresponds to the fungal infection of the treated plants in % and • β corresponds to the fungal infection of the untreated (control) plants in %\nAn efficacy of 0 means that the infection level of the treated plants corresponds to that of the untreated control plants; an efficacy of 100 means that the treated plants were not infected.\nThe expected efficacies of the mixtures of the active compounds were determined using Colby's formula [R. S. Colby, Weeds 15, 20-22 (1967)] and compared with the observed efficacies. Colby Formula: E=x+y−x·y/100 • E expected efficacy, expressed in % of the untreated control, when using the mixture of the active compounds A and B at the concentrations a and b • x efficacy, expressed in % of the untreated control, when using the active compound A at a concentration a • y efficacy, expressed in % of the untreated control, when using the active compound B at a concentration b\nLeaves of potted vines of the cultivar “Müller-Thurgau” were sprayed to run off point with an aqueous preparation of active compound which had been prepared from a stock solution comprising 10% of active compound, 85% of cyclohexanone and 5% of emulsifier. The next day, the undersides of the leaves were inoculated with an aqueous zoospore suspension of Plasmopara viticola. The vines were then initially placed at 24° C. in a chamber saturated with water vapor for 48 hours and then for 5 days in a greenhouse at 20-30° C. After this period of time, the plants were once more placed into a moist chamber for 16 hours to promote sporangiophore eruption. The extent of the development of the disease on the undersides of the leaves was then determined visually.", "data": [{"compound": "Cc1ccc(-c2c(Cl)nc(C#N)n2S(=O)(=O)N(C)C)cc1", "note": "[IIa, cyazofamid]", "values": [{"measurement": "Efficacy in % of the untreated control", "setting": "0.25 ppm in the spray liquor, vines Müller-Thurgau", "result": 14, "unit": "%"}, {"measurement": "Efficacy in % of the untreated control", "setting": "1 ppm in the spray liquor", "result": 57, "unit": "%"}, {"measurement": "Efficacy in % of the untreated control", "setting": "4 ppm in the spray liquor", "result": 71, "unit": "%"}]}]}
